Among the test systems are 786-0; BT-549; CAKI-1; CCRF-CEM; COLO 205; HCC 2998; HCT-116; HCT-15; HL-60; HOP-62; MDA-MB-231; MDA-N; OVCAR-4; SK-OV-3; SN12C; SNB-75; SR; SW-620; UACC-257; UO-31.
Holding throughout (experiment): growth of human tumour cells (NCI), 48 h

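Assay format: 96-well plates, 48-hour exposure. GI50: concentration for 50% inhibition of growth.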 Active and inactive are the calls of the source. Cut-off read from the data, not from the text of the source: active = GI50 up to about 1.1 µM and inactive = higher. Some results are limits rather than exact numbers.

As for `C[n+]1cccc(/C=C/c2ccc3cccc(O)c3n2)c1`, the GI50 was > 100 µM (inactive) in the test on 786-0; 84.9 µM (inactive) with BT-549; > 100 µM (inactive) with CAKI-1; 45.7 µM (inactive) in the test on CCRF-CEM; > 100 µM (inactive) with COLO 205; > 100 µM (inactive) in the test on HCC 2998. Moreover, the GI50 is > 100 µM (inactive) with HCT-116; > 100 µM in the test on HCT-15; 28.1 µM (inactive) with HL-60; 59 µM (inactive) in the test on HOP-62; > 100 µM (inactive) in the test on MDA-MB-231; > 100 µM (inactive) in the test on MDA-N. For the same molecule, the GI50 is > 100 µM (inactive) in the test with OVCAR-4; > 100 µM (inactive) in the test on SK-OV-3; 32.1 µM (inactive) in the test with SN12C; > 100 µM (inactive) with SNB-75; > 100 µM (inactive) with SR; > 100 µM (inactive) in the test with SW-620. The GI50 in the test on UACC-257 and in the test with UO-31 was > 100 µM (inactive) in each case.
`Clc1ccc(-c2cc(-c3nc4ccccc4[nH]3)no2)cc1`: the GI50 in the test with 786-0 is 24.3 µM (inactive); in the test with BT-549, 21.6 µM (inactive); in the test with CAKI-1, 18.3 µM (inactive); in the test on CCRF-CEM, 18.7 µM (inactive); with COLO 205, 20 µM (inactive); with HCC 2998, 18.6 µM (inactive). The GI50 in the test on HCT-116 is 16.6 µM (inactive); in the test on HCT-15, 19.6 µM; in the test on HL-60 it was 7.4 µM (inactive); in the test on HOP-62, 19.5 µM (inactive); in the test with MDA-MB-231, 18.6 µM (inactive); in the test with MDA-N, 17.5 µM (inactive). The GI50 was 17.7 µM (inactive) with OVCAR-4; 18.6 µM (inactive) in the test on SK-OV-3; 18.6 µM (inactive) in the test with SN12C; 18.3 µM (inactive) with SNB-75; 21.4 µM (inactive) in the test on SR; 22.4 µM (inactive) with SW-620. For the same molecule, the GI50 in the test on UACC-257 was 18.8 µM (inactive); with UO-31 it was 19 µM (inactive).
Regarding `Cc1nc(Cl)c(Cl)c(Cl)n1`, the GI50 is 0.409 µM (active) in the test with 786-0; 0.199 µM (active) in the test on BT-549; < 0.01 µM (active) with CAKI-1; 0.0109 µM (active) in the test with CCRF-CEM; 0.434 µM (active) with COLO 205; 1.42 µM (inactive) in the test with HCC 2998. Besides, the GI50 is 0.118 µM (active) in the test on HCT-116; 0.558 µM in the test with HCT-15; 0.0269 µM (active) in the test on HL-60; 0.451 µM (active) in the test on HOP-62; 0.276 µM (active) in the test with MDA-MB-231; 1.6 µM (inactive) in the test with MDA-N. The GI50 in the test with OVCAR-4 was 0.0331 µM (active); in the test on SK-OV-3, 3.47 µM (inactive); with SN12C, 0.284 µM (active); in the test on SNB-75, 1.18 µM (inactive); in the test on SR, < 0.01 µM (active); in the test with SW-620, 0.0471 µM (active). In addition, the GI50 in the test on UACC-257 is 0.687 µM (active).
In the case of `Clc1nncc2sc(-c3ccccc3)nc12`, the GI50 is 85.9 µM (inactive) with 786-0; 13.9 µM (inactive) with BT-549; 0.2 µM (active) with CAKI-1; 29 µM (inactive) in the test on CCRF-CEM; 29.2 µM (inactive) in the test on COLO 205; 8.45 µM (inactive) in the test on HCC 2998. The GI50 with HCT-116 was 16.9 µM (inactive); in the test with HCT-15 it was 7 µM; with HL-60, 4.14 µM (inactive); with HOP-62, 17.8 µM (inactive); in the test with MDA-MB-231, 18.6 µM (inactive); in the test on MDA-N, 21.6 µM (inactive). The GI50 with OVCAR-4 was 18.4 µM (inactive); with SK-OV-3, 28.7 µM (inactive); in the test with SN12C, 21 µM (inactive); in the test on SNB-75 it was 15.9 µM (inactive); in the test on SR, 9.82 µM (inactive); in the test with SW-620 it was 21 µM (inactive). Moreover, the GI50 in the test on UACC-257 is 18.3 µM (inactive); with UO-31, 19.9 µM (inactive).
With `CC(C)NCC(O)c1cc(OCc2ccccc2)c(OCc2ccccc2)cc1NC(=O)CCC(=O)O` (configuration not stated), the GI50 in the test on 786-0 is 7.52 µM (inactive); with BT-549 it was 15.8 µM (inactive); with CAKI-1, 8.75 µM (inactive); with CCRF-CEM, 2.58 µM (inactive); with COLO 205, 2.06 µM (inactive); with HCC 2998, 2.49 µM (inactive). Besides, the GI50 with HCT-116 is 5.22 µM (inactive); with HCT-15, 3.24 µM; in the test with HL-60, 3.15 µM (inactive); in the test with HOP-62 it was 13.7 µM (inactive); with MDA-MB-231 it was 8.15 µM (inactive); in the test on MDA-N it was 2.21 µM (inactive). In addition, the GI50 in the test with OVCAR-4 is 11.5 µM (inactive); with SK-OV-3 it was 14.9 µM (inactive); in the test on SN12C, 11.7 µM (inactive); with SNB-75 it was 10.6 µM (inactive); in the test with SR it was 2.34 µM (inactive); with SW-620 it was 2.61 µM (inactive). Moreover, the GI50 is 13.4 µM (inactive) in the test with UACC-257 and 5.77 µM (inactive) in the test on UO-31.
In the case of `CC(C)(C)C1CCC(=O)/C(=C/CC2CC(=O)N(c3ccccc3)C(=O)C2)C1` (configuration not stated), the GI50 with 786-0 was 19.8 µM (inactive); in the test with BT-549 it was 20.4 µM (inactive); in the test with CAKI-1, 20.9 µM (inactive); in the test on COLO 205 it was 20.8 µM (inactive); with HCC 2998, 23.8 µM (inactive); in the test on HCT-116, 14.8 µM (inactive). Further, the GI50 in the test with HCT-15 is 15.5 µM; with HL-60, 26.8 µM (inactive); with HOP-62, 30.2 µM (inactive); in the test on MDA-MB-231 it was 44 µM (inactive); in the test on MDA-N it was 22.6 µM (inactive); in the test with OVCAR-4, 32.7 µM (inactive). Further, the GI50 in the test on SN12C is 17.5 µM (inactive); in the test on SNB-75, 21.9 µM (inactive); in the test on SR, 10.3 µM (inactive); in the test on SW-620, 23.4 µM (inactive); in the test on UACC-257, 14.7 µM (inactive); in the test with UO-31, 16.6 µM (inactive).
As for `c1ccc(C2=NOC(c3ccccc3)N2C23CC4CC(CC(C4)C2)C3)cc1` (configuration not stated), the GI50 in the test on 786-0, in the test on BT-549, with CAKI-1, with CCRF-CEM, with COLO 205 and in the test on HCC 2998 was > 10 µM (inactive) throughout. The GI50 is > 10 µM (inactive) in the test on HCT-116; > 10 µM in the test with HCT-15; > 10 µM (inactive) with HL-60; > 10 µM (inactive) in the test on HOP-62; > 10 µM (inactive) in the test with MDA-MB-231; > 10 µM (inactive) in the test with MDA-N. For the same molecule, the GI50 in the test with OVCAR-4 was > 10 µM (inactive); with SK-OV-3, > 10 µM (inactive); with SN12C it was > 10 µM (inactive); in the test with SNB-75, 5.19 µM (inactive); in the test on SR it was 0.785 µM (active); with SW-620, > 10 µM (inactive). The GI50 in the test with UACC-257 was 9.73 µM (inactive).
For `CC(=O)CC(C)(C)NC(=O)[C@@]1(O)CC[C@H]2[C@@H]3CCC4=CC(=O)CC[C@@H]4[C@H]3CC[C@@]21C`, the GI50 in the test with 786-0, in the test with BT-549, in the test on CCRF-CEM, with COLO 205, in the test with HCC 2998 and in the test on HCT-116 was > 100 µM (inactive) throughout. Besides, the GI50 was > 100 µM in the test with HCT-15; 70.3 µM (inactive) in the test with HL-60; > 100 µM (inactive) in the test on HOP-62; > 100 µM (inactive) with MDA-MB-231; > 100 µM (inactive) with MDA-N; > 100 µM (inactive) with OVCAR-4. Besides, the GI50 with SK-OV-3, in the test with SN12C, in the test on SNB-75, in the test with SR, with SW-620 and with UACC-257 was > 100 µM (inactive) throughout. In the test with UO-31, the GI50 was > 100 µM (inactive).
Consider `O=C(O)c1c2c(cc3c1CC1(Cc4cc5c(cc4C1=O)CCC5)C3)CCC2` (configuration not stated), for which the GI50 with 786-0 is > 100 µM (inactive); in the test with BT-549 it was 86.3 µM (inactive); in the test with CCRF-CEM, 46.2 µM (inactive); with COLO 205 it was 52.4 µM (inactive); in the test on HCC 2998 it was 51.9 µM (inactive); in the test with HCT-116, 87.5 µM (inactive). For the same molecule, the GI50 in the test with HCT-15 was 74.1 µM; in the test on HL-60 it was 65.2 µM (inactive); in the test on HOP-62, > 100 µM (inactive); with MDA-MB-231, > 100 µM (inactive); in the test with MDA-N, > 100 µM (inactive); in the test with OVCAR-4 it was 52.2 µM (inactive). In addition, the GI50 in the test on SK-OV-3 was > 100 µM (inactive); in the test with SN12C, > 100 µM (inactive); in the test with SNB-75, > 100 µM (inactive); with SR, 20.7 µM (inactive); with SW-620, > 100 µM (inactive); in the test on UACC-257 it was 56.6 µM (inactive). For the same molecule, the GI50 with UO-31 was > 100 µM (inactive).
As to `Cc1ccnc2[nH]c(-c3ccccc3)cc(=O)c12`, the GI50 is 0.0124 µM (active) in the test on 786-0; 19 µM (inactive) with BT-549; 0.0116 µM (active) in the test on CAKI-1; 0.00589 µM (active) in the test with CCRF-CEM; 0.0039 µM (active) in the test with COLO 205; 0.037 µM (active) in the test with HCC 2998. The GI50 in the test with HCT-116 was 0.00396 µM (active); in the test on HCT-15, 0.00485 µM; with HL-60 it was 0.00188 µM (active); with MDA-MB-231 it was 0.0912 µM (active); with MDA-N, 0.0011 µM (active); in the test on OVCAR-4, 68.7 µM (inactive). For the same molecule, the GI50 in the test with SK-OV-3 was 0.0136 µM (active); in the test on SN12C, 0.0277 µM (active); in the test with SNB-75, 0.00621 µM (active); in the test with SR, 0.00103 µM (active); in the test with SW-620, 0.00421 µM (active); in the test with UACC-257, 0.0113 µM (active). Further, the GI50 in the test on UO-31 is 0.0348 µM (active).
For the molecule `Cc1nn(C(=O)c2ccc(Cl)cc2)c2c1C(c1ccc(Cl)cc1)SC(=N)N2` (configuration not stated), the GI50 with 786-0, in the test on BT-549, in the test with CAKI-1, in the test with CCRF-CEM, with COLO 205 and with HCC 2998 was > 10 µM (inactive) in each case. In addition, the GI50 is > 10 µM (inactive) in the test with HCT-116; > 10 µM in the test with HCT-15; > 10 µM (inactive) in the test on HL-60; > 10 µM (inactive) in the test with HOP-62; > 10 µM (inactive) in the test with MDA-MB-231; > 10 µM (inactive) in the test with MDA-N. The GI50 with OVCAR-4, in the test on SK-OV-3, in the test with SN12C, in the test on SNB-75, with SR and with SW-620 was > 10 µM (inactive) in each case. In addition, in the test with UACC-257, the GI50 was > 10 µM (inactive).
